Reference: patent US20100015249A1, “Antitumor agent containing 6'-amidino-2'-naphthyl 4-guanidinobenzoate or salt thereof” (priority 2005, published 2010)

What was measured:
[1] = system: human pancreas cancer cell line MDAPanc-28; assay: MTT assay of cell survival rate / living cell ratio; format: cell-based; settings: MDAPanc-28, single agent, MTT
Procedure: The present inventors examined the concomitant effect of FUT and TNF-α on apoptosis in cancer cells. After treatment with TNF-α for 24 hours, the human pancreas cancer cell line MDAPanc-28 was further cultured for 24 hours with various concentrations of FUT being added. Cells prepared were then subjected to an MTT assay according to the method generally known to calculate the cell survival rates. Also, DNA was extracted to perform a DNA fragmentation assay.
More specifically, with regard to the MTT assay, each well was seeded with 2000 cells per 100 μl of culture medium in a 96-well microtiterplate, followed by the above mentioned treatment. After plate centrifugation, each well received 5 mg/ml of MTT (Sigma) PBS solution instead of culture medium and was incubated for 4 hours at 37° C. After removing the supernatant, 100 μl of DMSO were added to dissolve the cells. The absorbance of the samples was measured at 570 nm by using a microplate reader. 8 wells were subjected to the same condition in this experiment. Two independent experiments were performed, and the average was calculated.
However, the agents are of different types with different mechanisms of action. Therefore, the present inventors examined the effect of each agent on the living cell ratio in the human pancreas cancer cell line MDAPanc-28 singularly. After being treated with each agent for 24 hours and 48 hours, the human pancreas cancer cell line MDAPanc-28 was subjected to a MTT assay. The MTT assay was performed by the method described in Example 9.

NF-κB = assay: Gel shift assay of gemcitabine-induced NF-κB activation; format: cell-based, human; settings: MDAPanc-28, pretreatment 3 hours then gemcitabine 3 hours
Procedure: At the same time, the present inventors also made a comparison with the other NF-κB inhibitors PS1145 and PS341. […] Subsequently, a gel shift assay was performed to examine the effect on NF-κB activation.

[2] = system: human pancreas cancer cell line MDAPanc-28; assay: Apoptosis ratio by flow cytometry (propidium iodide, FACScan); format: cell-based; settings: for apoptosis induction in combination with gemcitabine: MDAPanc-28, pretreatment with the agent 3 hours then gemcitabine 48 hours, compared with gemcitabine alone
Procedure: The present inventors next examined the effect of these agents on apoptosis induction in the human pancreas cancer cell line MDAPanc-28. […] Flow cytometry was used to confirm the occurrence of apoptosis. Cells were collected after treatments with the agents and fixed in 70% ethanol at −20° C. for 24 hours. After rinsing with PBS, cells were suspended in PBS containing 50 μg/ml of propium iodide, 0.1% Triton X-100, 0.1% sodium citrate and 1 μg/ml of DNase free RNase. The samples were incubated at room temperature for 30 minutes and the amount of DNA was measured by using FACScan.

Murine fiber cells = assay: Effect on survival rate of normal cells; format: cell-based; settings: concentrations under which apoptosis was induced in cells
Source text: Therefore, the present inventors next examined the effect of FUT treatment on normal cells. Murine fiber cells were used as normal cells.

[3] = system: human pancreas cancer cell line Panc-1; assay: Subcutaneous Panc-1 transplant in nude mice: tumor volume and weight; format: in vivo; settings: Panc-1 s.c., 6 weeks treatment, gemcitabine 100 mg/kg once a week i.p., FUT-175 30 mg/kg three times a week i.p.
Procedure: (§1) Tumor volume, the body weight and extirpated tumor weight were measured and pictures were taken for each group of mice.

[4] = Body weight of Panc-1 transplanted nude mice after treatment; format: in vivo; settings: Panc-1 s.c., 6 weeks treatment, gemcitabine 100 mg/kg once a week i.p., FUT-175 30 mg/kg three times a week i.p.
Procedure: as §1

[5] = system: human pancreas cancer cell line MDAPanc-28; assay: DNA fragmentation assay (apoptosis); format: cell-based; settings: MDAPanc-28, TNF-α 5 ng/ml 24 hours, then with or without FUT 24 hours
Procedure: After adding 1000 U/ml of protease K, the sample was further incubated for 5 hours at 50° C. After extracting DNA with phenol/chloroform/isoamyl alcohol, isopropanol and ammonium acetate were added to the collected water-soluble fractions in order to collect precipitates. The precipitates were then rinsed with 70% ethanol and dissolved in Tris-EDTA buffer. Electrophoresis was performed on a 2% agarose gel and DNA bands were confirmed by using ethidium bromide. The present inventors examined the concomitant effect of FUT and TNF-α on apoptosis in cancer cells. After treatment with TNF-α for 24 hours, the human pancreas cancer cell line […]-28 was further cultured for 24 hours with various concentrations of FUT being added. Cells prepared were then subjected to an MTT assay according to the method generally known to calculate the cell survival rates. Also, DNA was extracted to perform a DNA fragmentation assay. More specifically, with regard to the MTT assay, each well was seeded with 2000 cells per 100 μl of culture medium in a 96-well microtiterplate, followed by the above mentioned treatment. […] The absorbance of the samples was measured at 570 nm by using a microplate reader. […] Two independent experiments were performed, and the average was calculated. […]

Row | Compound | inhibitory effect on proliferation, 24-hour treatment [1] | inhibitory effect on proliferation, 48-hour treatment [1] | effect on gemcitabine-induced activation of NF-κB (NF-κB) | apoptosis induction in combination with gemcitabine [2] | survival rate of normal cells (Murine fiber cells) | apoptosis induction, single agent ([2]; MDAPanc-28, gemcitabine alone for 48 hours) | Extirpated tumor weight, level of the control [3] | Tumor volume, level of the control [3] | body weight of mice after administration [4] | DNA fragmentation [5]
1 | CC(C)C[C@H](NC(=O)[C@H](Cc1ccccc1)NC(=O)c1cnccn1)B(O)O [PS341] | no significant inhibitory effect on proliferation | no significant inhibitory effect on proliferation | showed a similar trend | further enhanced the effect on apoptosis induction | significantly decreased the survival rate of normal cells |  |  |  |  | 
2 | O=C(Nc1cc(Cl)cc2c1[nH]c1cnccc12)c1cccnc1 [PS1145] | did not show any significant inhibitory effect | concentration-dependent inhibitory effect on proliferation | showed a similar trend | further enhanced the effect on apoptosis induction | significantly decreased the survival rate of normal cells |  |  |  |  | 
3 | Nc1ccn([C@@H]2O[C@H](CO)[C@@H](O)C2(F)F)c(=O)n1 [gemcitabine] |  |  |  |  |  | induced apoptosis | approximately 50% | approximately 50% | showed weight reduction | 
4 | TNF-α |  |  |  |  |  |  |  |  |  | showed no DNA fragmentation
